Read-outs that look alike come from different tables or passages of the source.

Holding throughout (format): cell-based, Escherichia coli
One test concerns E. coli EKO-35. As to the kind of experiment: microbe, parasite or virus in culture. Conditions: Escherichia coli, EKO35, technical duplicate. Here is the method:
(§1) Single colonies were used to inoculate 3 mL of LB followed by incubation at 37° C. for 18 h with aeration at 220 rpm. The bacterial cells were harvested by centrifugation and resuspended in phosphate buffered saline (PBS) ([pH 7.4], 137 mM NaCl (Bioshop), 2.7 mM KCl (Bioshop), 10 mM Na2PO4 (Bioshop) and 1.8 mM K2PO4) to an OD600 nm˜1.0, followed by 1/2000 dilution into MHB II.
(§2) To a 384-well microtiter plate (Corning, untreated polystyrene), 500 nL of compound was dispensed, in duplicate, and serially titrated 2-fold using an Echo 550 acoustic liquid dispenser (Labcyte Inc.). […] As a solvent control, 500 nL of DMSO was applied to wells that contained no compound. Using a multichannel pipette, 50 μL of the prepared bacterial inoculum was applied to each well. To enable background correction post-incubation, the OD600 nm was measured (Biotek Synergy Neo2 microplate reader) prior to incubation. The plates were incubated at 37° C. with aeration at 900 rpm for 18 h. The plates were equilibrated to room temperature and the OD600 nm measured using a BioTek Synergy Neo2 microplate reader. Data was analyzed in both Prism (GraphPad, Version 9.2.0) and Microsoft Excel (Version 16.53). Raw data were input into Microsoft Excel and the pre-incubation OD600 nm measurements were subtracted from the post-incubation OD600 nm measurements. These corrected measurements were input into Prism 9 as a grouped analysis. […] All other MIC values were adjusted accordingly and visualized using the single-color scale grouped heat map function. Identification of compound chemical properties was achieved using DataWarrior (Version 5.5.0). Using PubChem, the SMILES chemical notation for each compound was obtained and compiled in Microsoft Excel. The resulting spreadsheet was input into DataWarrior and properties were calculated from the compound chemical structures.

A further test concerns E. coli ΔtolC. As to the kind of experiment: microbe, parasite or virus in culture. As for the experimental part: as §1, §2
The test system of test [1] is wild-type E. coli K-12 str. BW25113. In words: microbe, parasite or virus in culture. Conditions: Escherichia coli, BW25113, technical duplicate. As for the experimental part: as §1, §2
The next test deals with EKO-35 araC::acrB. As to the kind of experiment: MIC susceptibility profiling, efflux platform. Conditions: Escherichia coli; Table 13A; non-porinated; technical duplicate; read-out: Minimum Inhibitory Concentration, EKO-35 araC::acrB. As for the experimental part: as §1, §2
In the next test the test system is EKO-35 araC::acrEF. As to the kind of experiment: MIC susceptibility profiling, efflux platform. The following applies: Escherichia coli; Table 13A; non-porinated; technical duplicate; read-out: Minimum Inhibitory Concentration, EKO-35 araC::acrEF. Here is the method: as §1, §2
In test [2] the test system is EKO-35 araC::mexCD (MexCD from P. aeruginosa). In words: MIC susceptibility profiling, efflux platform. Conditions: Table 13B; non-porinated; technical duplicate; read-out: Minimum Inhibitory Concentration, EKO-35 araC::mexCD. As for the experimental part: as §1, §2
A further test concerns wild-type (WT) K-12-Pore. As to the kind of experiment: microbe, parasite or virus in culture. Conditions: Escherichia coli, technical duplicate. As for the experimental part: (§3) For genomic integration of the pore, the fhuA ΔC/Δ4L gene and the adjacent gentamicin resistance cassette were amplified using a high-fidelity polymerase and the fhuA_40_Up/gImS_3680_Low primers (Table 4). Integration of the pore gene was performed as described above. The pore gene was introduced into the intergenic region between the glmS and pstS genes, with gene expression under the control of a constitutive promoter (Kearse, M. et al., 2012). Genomic integrations were verified using PCR (Primers: pstS_520_Up/glmS_3680_Low, Table 4). Successful integrations were transformed with pCP20 to remove the gentamicin resistance cassette as previously described. Activity of the pore was confirmed through susceptibility testing with the large antibiotic vancomycin prior to phenotypic profiling and further susceptibility testing.
as §1, §2

The subject of a further test is ΔtolC-Pore. As to the kind of experiment: microbe, parasite or virus in culture. As for the experimental part:
as §3, §1, §2

The subject of another test is EKO-35-Pore. As to the kind of experiment: MIC susceptibility profiling, porinated strain. Conditions: Escherichia coli, technical duplicate. Here is the method:
as §3, §1, §2

Another test relates to EKO-35 araC::acrB Pore. In words: MIC susceptibility profiling, porinated efflux platform. Conditions: Escherichia coli; Table 14A; porinated; technical duplicate; read-out: Minimum inhibitory concentration, EKO-35 araC::acrB Pore. Here is the method: as §3, §1, §2
The subject of test [3] is EKO-35 araC::acrBD408A Pore. The test is described as above. Conditions: Escherichia coli; EKO-35 araC::acrBD408A Pore; technical duplicate; read-out: Minimum inhibitory concentration. As for the experimental part: as §3, §1, §2
The next test relates to EKO-35 araC::acrD Pore. The description is as above. The following applies: Escherichia coli; Table 14A; porinated; technical duplicate; read-out: Minimum inhibitory concentration, EKO-35 araC::acrD Pore. As for the experimental part: as §3, §1, §2
Another test deals with EKO-35 araC::acrEF Pore. Described as above. Conditions: Escherichia coli; Table 14A; porinated; technical duplicate; read-out: Minimum inhibitory concentration, EKO-35 araC::acrEF Pore. Here is the method:
as §3, §1, §2

The next test concerns EKO-35 araC::emrKY Pore. Described as above. The following applies: Escherichia coli; EKO-35 araC::emrKY Pore; technical duplicate; read-out: Minimum inhibitory concentration. Here is the method:
as §3, §1, §2

The next test deals with EKO-35 araC::macAB Pore. The description is as above. The following applies: Escherichia coli; EKO-35 araC::macAB Pore; technical duplicate; read-out: Minimum inhibitory concentration. Here is the method: as §3, §1, §2
The next test deals with EKO-35 araC::mdtBC Pore. The description is as above. Conditions: Escherichia coli; EKO-35 araC::mdtBC Pore; technical duplicate; read-out: Minimum inhibitory concentration. Here is the method:
as §3, §1, §2

For a further test, the system named is EKO-35 araC::mdtEF Pore. Described as above. The following applies: Escherichia coli; Table 14A; porinated; technical duplicate; read-out: Minimum inhibitory concentration, EKO-35 araC::mdtEF Pore. As for the experimental part: as §3, §1, §2

As for `O=C(O)c1cn(C2CC2)c2cc(N3CCNCC3)c(F)cc2c1=O` [ciprofloxacin], the MIC was determined as 5 ng/mL in the test with E. coli EKO-35 (Table 10, without pore, read-out: Minimum inhibitory concentration (MIC), EKO-35); 5 ng/mL with E. coli EKO-35 (Table 13A, non-porinated, read-out: Minimum Inhibitory Concentration, EKO-35); 5 ng/mL with E. coli ΔtolC (Escherichia coli, 18 h, read-out: Minimum Inhibitory Concentration, ΔtolC); 10 ng/mL in test [1] (Table 10, without pore, read-out: Minimum inhibitory concentration (MIC), K-12); 10 ng/mL in test [1] (Table 13A, non-porinated, read-out: Minimum Inhibitory Concentration, K-12); 20 ng/mL with EKO-35 araC::acrB. For the same compound, the MIC with EKO-35 araC::acrEF stood at 20 ng/mL; in test [2], 10 ng/mL; in the test on wild-type (WT) K-12-Pore (Table 10, with pore, read-out: Minimum inhibitory concentration (MIC), Pore K-12), 5 ng/mL; with wild-type (WT) K-12-Pore (Table 14A, porinated, read-out: Minimum inhibitory concentration, K-12 (WT)-Pore) it was 5 ng/mL; with ΔtolC-Pore (Escherichia coli, 18 h, read-out: Minimum inhibitory concentration, ΔtolC-Pore), 2 ng/mL; in the test with EKO-35-Pore (Table 10, with pore, read-out: Minimum inhibitory concentration (MIC), Pore EKO-35), 2 ng/mL. The MIC in the test with EKO-35-Pore (Table 14A, porinated, read-out: Minimum inhibitory concentration, EKO-35-Pore) came to 2 ng/mL; in the test on EKO-35 araC::acrB Pore, 9 ng/mL; in test [3], 2 ng/mL; in the test on EKO-35 araC::acrD Pore, 2 ng/mL; in the test on EKO-35 araC::acrEF Pore it was 10 ng/mL; with EKO-35 araC::emrKY Pore it was 2 ng/mL. In addition, the MIC in the test with EKO-35 araC::macAB Pore, in the test with EKO-35 araC::mdtBC Pore and in the test on EKO-35 araC::mdtEF Pore was 2 ng/mL in each case. Further, in the test on E. coli ΔtolC (Table 10, without pore, technical duplicate), the “Minimum inhibitory concentration (MIC), ΔtolC” value was 5 ng/mL. Also, in the test on ΔtolC-Pore (Table 10, with pore, technical duplicate), the “Minimum inhibitory concentration (MIC), Pore ΔtolC” value is 2 ng/mL.
